Measured values: article PMC4450769, “Placement of oppositely charged aminoacids at a polypeptide termini determines the voltage-controlled braking of polymer transport through nanometer-scale pores” (Scientific Reports, 2015)

System: Staphylococcus aureus α-hemolysin (α-HL) pore
Type: biochemical

In the case of “Ac-RRRRRRAAAAAARRRRRR- NH 2 [CP2, control peptide construct with net charge of ~ +6 e− at both N- and C-termini at neutral pH]”, the “capture by the pore as a function of potential polarity” value (5 µM) is reported as “captured by the pore only for positive potentials” and the “association with and block of the α-HL pore at negatively applied potential” value (pH 7.3) is reported as “does not associate and block”.
